Data reported in patent US6727237B2, “Inhibitors of bacterial NAD synthetase” (priority 1998, dated 2004).
Converted amounts (≈) assume the structure as drawn. “And” between values parts separate entries of the source, which are not always exact repeats. Identical values can stand only once.

Columns and labels:
[1] = tested on: Staphylococcus epidermitis; test: Dose response of bacterial growth inhibition, MIC85; settings: minimum inhibitory concentration to achieve 85% inhibition, S. epidermitis
[2] = tested on: Staphylococcus epidermitis; test: Bacterial growth inhibition screen in LB media (absorbance 595 nm), percent inhibition; settings: for % Inhibition: S. epidermitis
[3] = molecular target: T1, bacterial NAD synthetase enzyme (Bacillus subtilis, UniProt P08164); test: biochemical; format: biochemical
T1 sequence (P08164 2-272 limits assumed): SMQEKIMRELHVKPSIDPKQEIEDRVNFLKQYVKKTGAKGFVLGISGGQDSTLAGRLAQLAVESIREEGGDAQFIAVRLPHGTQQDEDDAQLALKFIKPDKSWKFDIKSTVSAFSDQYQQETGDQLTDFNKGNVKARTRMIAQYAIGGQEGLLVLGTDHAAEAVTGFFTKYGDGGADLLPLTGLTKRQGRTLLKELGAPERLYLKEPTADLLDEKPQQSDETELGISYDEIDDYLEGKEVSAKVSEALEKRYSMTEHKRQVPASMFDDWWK

[4] = compound at 0.2 mM (Table 312A)

Structure (SMILES)	% Inhibition ([2]; concentration screened 10 uM)	% Inhibition [3, 4]	other results
C[N+](C)(C)c1cccc(C(=O)OCCCCCCn2ccc3cc(OCc4ccccc4)ccc32)c1 [Compound 807]	97.22%	–	MIC85 [1]: 10 µM
CN(C)c1ccc(CC(=O)OCCCCCCCCn2ccc3cc([N+](=O)[O-])ccc32)cc1 [Compound 852]	98.58%	–	MIC85 [1]: 30 µM (≈ 13.5 µg/mL)
COc1ccc2[nH]c(CCC[n+]3ccccc3)cc2c1 [Compound 372]	67.34%	–	MIC85 [1]: 30 µM
CN(C)c1ccc(CC(=O)OCCCCCCCn2ccc3cc([N+](=O)[O-])ccc32)cc1 [Compound 851]	98.90%	–	MIC85 [1]: 30 µM (≈ 13.1 µg/mL)
CN(C)c1cccc(C(=O)OCCCCCCCCCn2ccc3cc([N+](=O)[O-])ccc32)c1 [Compound 841]	98.90%	–	MIC85 [1]: 10 µM (≈ 4.52 µg/mL)
COc1ccc2c(ccn2CCCCCOC(=O)c2cc3ccccc3[n+](C)c2)c1 [Compound 821]	95.02%	–	MIC85 [1]: 30 µM
O=C(OCCCCCCCCCn1ccc2cc([N+](=O)[O-])ccc21)c1cnc2ccccc2c1 [Compound 835]	99.03%	–	MIC85 [1]: 3.7 µM (≈ 1.7 µg/mL)
COC(=O)C=Cc1cn(CCCCCCC[n+]2ccccc2)c2ccccc12 [Compound 261]	92.51%	–	MIC85 [1]: 30 µM
COc1ccc2c(ccn2CCCCCCCCOC(=O)c2cccc([N+](C)(C)C)c2)c1 [Compound 804]	97.29%	–	MIC85 [1]: 30 µM
CC(=O)c1ccc2[nH]c(CCCCC[n+]3cccc4ccccc43)cc2c1 [Compound 476]	11.14%	17.49%	–
FC(F)(F)c1ccc2cc(CCC[n+]3cccc4ccccc43)[nH]c2c1 [Compound 396]	1.53%	–	% Inhibition ([3]; compound at 0.1 mM (Table 314)): 3.64%
c1ccc(-c2ccc3[nH]c(CCCCCC[n+]4ccc5ccccc5c4)cc3c2)cc1 [Compound 543]	5.99%	28.06%	–
c1ccc(C(c2ccccc2)(c2ccccc2)c2ccc3[nH]c(CCCC[n+]4cccc5ccccc54)cc3c2)cc1 [Compound 445]	11.21%	5.43%	–
CC(=O)c1ccc2[nH]c(CCCCC[n+]3ccccc3)cc2c1 [Compound 368]	–	–	% Inhibition ([3]; compound at 0.1 mM (Table 314)): 21.10%; % Inhibition ([2]; concentration screened 100 uM): 91.36%
c1ccc(C(c2ccccc2)(c2ccccc2)c2ccc3[nH]c(CCCCC[n+]4ccccc4)cc3c2)cc1 [Compound 338]	1.67%	–	% Inhibition ([3]; compound at 0.1 mM (Table 314)): 27.28%
CC(=O)c1ccc2[nH]c(CCCCOC(=O)c3ccc(N(C)C)cc3)cc2c1 [Compound 636]	–	17.36%	% Inhibition ([2]; concentration screened 100 uM): 6.72%
CC(C)c1ccc2[nH]c(CCCCCC[n+]3cccc4ccccc43)cc2c1 [Compound 429]	3.06%	13.01%	–
CC(C)c1ccc2[nH]c(CCC[n+]3cccc4ccccc43)cc2c1 [Compound 426]	16.57%	–	% Inhibition ([3]; compound at 0.1 mM (Table 314)): 5.49%
O=C(c1ccccc1)c1ccc2[nH]c(CCCCCCCC[n+]3ccccc3)cc2c1 [Compound 359]	–	35.55%	% Inhibition ([2]; concentration screened 100 uM): 1.01%
Fc1ccc2[nH]c(CCCCCCCC[n+]3cccc4ccccc43)cc2c1 [Compound 455]	6.55%	2.69%	–

Structure (SMILES)	% Inhibition ([2]; concentration screened 10 uM)	% Inhibition [3, 4]	other results
c1ccc(-c2ccc3[nH]c(CCC[n+]4ccc5ccccc5c4)cc3c2)cc1 [Compound 540]	1.60%	20.20%	–
Fc1ccc2[nH]c(CCCCCCC[n+]3ccc4ccccc4c3)cc2c1 [Compound 562]	9.44%	46.44%	–
O=C(OCCCCCCCCc1cc2cc(C(F)(F)F)ccc2[nH]1)c1ccccc1-c1ccccc1 [Compound 614]	–	8.32%	% Inhibition ([2]; concentration screened 100 uM): 20.35%
O=[N+]([O-])c1cc([N+](=O)[O-])c2[nH]c(CCCCCC[n+]3ccccc3)cc2c1 [Compound 309]	–	–	% Inhibition ([3]; compound at 0.1 mM (Table 314)): 41.47%; % Inhibition ([2]; concentration screened 100 uM): 99.07%
CC(=O)c1ccc2[nH]c(CCCCC[n+]3ccc4ccccc4c3)cc2c1 [Compound 584]	–	68.79%	% Inhibition ([2]; concentration screened 100 uM): 96.07%
c1ccc(Oc2ccc3[nH]c(CCCC[n+]4cccc5ccccc54)cc3c2)cc1 [Compound 457]	4.67%	3.31%	–
O=C(c1ccccc1)c1ccc2[nH]c(CCCCCC[n+]3cccc4ccccc43)cc2c1 [Compound 465]	8.08%	7.92%	–
c1ccc(-c2ccc3[nH]c(CCCCC[n+]4cccc5ccccc54)cc3c2)cc1 [Compound 434]	5.64%	5.36%	–
c1ccc(-c2ccc3[nH]c(CCCCCC[n+]4ccccc4)cc3c2)cc1 [Compound 327]	–	–	% Inhibition ([3]; compound at 0.1 mM (Table 314)): 55.31%; % Inhibition ([2]; concentration screened 100 uM): 100.00%
Fc1ccc2[nH]c(CCC[n+]3cccc4ccccc43)cc2c1 [Compound 450]	7.45%	7.90%	–
O=C(c1ccccc1)c1ccc2[nH]c(CCCCCCCOC(=O)C(c3ccccc3)c3ccccc3)cc2c1 [Compound 676]	5.52%	–	% Inhibition ([3]; compound at 0.1 mM (Table 314)): 1.46%
C[n+]1cccc(C(=O)OCCCCn2ccc3cc(OCc4ccccc4)ccc32)c1 [Compound 765]	–	–	inhibition at 100 µM [3]: 90%; IC50 ([3]; lead compounds (Table 318A), read-out: IC 50): 90 µM; inhibition of growth at 10 µM ([2]; Staphylococcus, read-out: % Inhibition, S. epidermitis, concentration screened 10 uM): 9.31%
O=C(O)c1ccc2[nH]c(CCCCC[n+]3ccccc3)cc2c1 [Compound 386]	–	28.75%	% Inhibition ([2]; concentration screened 100 uM): 96.36%
CC(=O)c1ccc2[nH]c(CCCCCCCOC(=O)C(c3ccccc3)c3ccccc3)cc2c1 [Compound 670]	5.59%	–	% Inhibition ([3]; compound at 0.1 mM (Table 314)): 4.65%
O=C(OCCCCCCCCc1cc2cc(Oc3ccccc3)ccc2[nH]1)c1cccnc1 [Compound 662]	3.27%	8.39%	–
CCCCc1ccc2[nH]c(CCC[n+]3ccccc3)cc2c1 [Compound 312]	4.60%	–	% Inhibition ([3]; compound at 0.1 mM (Table 314)): 10.25%
O=C(O)c1ccc2[nH]c(CCCCCC[n+]3ccc4ccccc4c3)cc2c1 [Compound 603]	1.60%	51.72%	–
O=[N+]([O-])c1cc([N+](=O)[O-])c2[nH]c(CCCC[n+]3cccc4ccccc43)cc2c1 [Compound 415]	1.95%	7.72%	–
CN(C)c1ccc(C(=O)OCCCCCCCCc2cc3cc(C(F)(F)F)ccc3[nH]2)cc1 [Compound 611]	–	15.13%	% Inhibition ([2]; concentration screened 100 uM): 9.67%
c1ccc(C(c2ccccc2)(c2ccccc2)c2ccc3[nH]c(CCCCC[n+]4cccc5ccccc54)cc3c2)cc1 [Compound 446]	3.69%	13.78%	–

Structure (SMILES)	% Inhibition ([2]; concentration screened 10 uM)	% Inhibition [3, 4]	other results
CC(C)c1ccc2[nH]c(CCCCCCC[n+]3ccc4ccccc4c3)cc2c1 [Compound 538]	43.05%	40.95%	–
c1ccc2c[n+](CCCCCCc3cc4ccccc4[nH]3)ccc2c1 [Compound 501]	–	4.98%	% Inhibition ([2]; concentration screened 100 uM): 7.93%
O=C(OCCCCCCCCc1cc2cc(C(F)(F)F)ccc2[nH]1)C(c1ccccc1)c1ccccc1 [Compound 653]	–	20.59%	% Inhibition ([2]; concentration screened 100 uM): 8.42%
O=C(O)c1ccc2[nH]c(CCC[n+]3cccc4ccccc43)cc2c1 [Compound 492]	11.00%	2.59%	–
O=[N+]([O-])c1ccc2[nH]c(CCCCCCCC[n+]3cccc4ccccc43)cc2c1 [Compound 443]	7.66%	5.51%	–
Fc1cc(F)c2[nH]c(CCCCCC[n+]3ccc4ccccc4c3)cc2c1 [Compound 519]	11.35%	16.27%	–
CCCCc1ccc2[nH]c(CCCC[n+]3ccc4ccccc4c3)cc2c1 [Compound 529]	10.15%	15.50%	–
O=C(c1ccccc1)c1ccc2[nH]c(CCCCC[n+]3ccc4ccccc4c3)cc2c1 [Compound 572]	–	31.02%	% Inhibition ([2]; concentration screened 100 uM): 96.57%
COC(=O)c1ccc2[nH]c(CCC[n+]3cccc4ccccc43)cc2c1 [Compound 486]	22.28%	4.97%	–
c1ccc(C(c2ccccc2)(c2ccccc2)c2ccc3[nH]c(CCCCCCC[n+]4ccc5ccccc5c4)cc3c2)cc1 [Compound 556]	60.18%	–	% Inhibition ([3]; compound at 0.1 mM (Table 314)): 18.19%
CC(=O)c1ccc2[nH]c(CCCC[n+]3ccccc3)cc2c1 [Compound 367]	5.64% and 5.22%	9.72%	–
Fc1cc(F)c2[nH]c(CCC[n+]3ccccc3)cc2c1 [Compound 300]	6.20%	11.79%	–
FC(F)(F)c1ccc2[nH]c(CCCCCC[n+]3ccc4ccccc4c3)cc2c1 [Compound 579]	5.57%	12.57%	–
Fc1ccc2[nH]c(CCCC[n+]3cccc4ccccc43)cc2c1 [Compound 451]	5.57%	–	% Inhibition ([3]; compound at 0.1 mM (Table 314)): 2.94%
FC(F)(F)c1ccc2[nH]c(CCCCC[n+]3ccc4ccccc4c3)cc2c1 [Compound 578]	–	30.96%	% Inhibition ([2]; concentration screened 100 uM): 97.79%
Cc1ccc2[nH]c(CCCCCC[n+]3ccc4ccccc4c3)cc2c1 [Compound 513]	–	23.66%	% Inhibition ([2]; concentration screened 100 uM): 17.86%
Cc1ccc2[nH]c(CCCCCC[n+]3cccc4ccccc43)cc2c1 [Compound 405]	44.01%	6.07%	–
CC(=O)c1ccc2[nH]c(CCCCCC[n+]3cccc4ccccc43)cc2c1 [Compound 477]	3.69%	10.15%	–
